The subject of the experiment is CEM cells HIV-1 protection, formazan growth assay. Briefly: NCI AIDS Antiviral Assay. The following applies: for IC50: measured here: growth of uninfected CEM cells. An outline of the steps: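 Steps: treat uninfected and HIV-1-infected human CEM cells at five drug levels; quantify growth by soluble formazan; retest any compound reaching 50% protection; classify actives from the retest.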

Several values for one entry are separate records, joined by “and”; a condition that tells them apart may be missing. Identical values can stand only once. Activity calls are given as the source filed them.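 The calls were made as follows: active = compounds giving half or more protection of infected cells from virus-caused growth loss, again on retest; inactive = the rest.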

`Cc1cc(-c2c(O)c3c(ccc4ccccc43)oc2=O)no1`: the EC50 – broadly, the concentration that produces a half-maximal response – is above 200 µM and the IC50 – broadly, the concentration at which inhibition is half-maximal – was found to be 93.3 µM.

`Oc1ccccc1C=Nc1ccccc1SSc1ccccc1N=Cc1ccccc1O`: the EC50 is above 200 µM and the IC50 is 8.13 µM.

On to `CCOC(=O)C1N(S(=O)(=O)c2ccc(C)cc2)CCC12c1ccccc1N(C(C)=O)C2C(/C=C/C(=O)OC)=C/C(=O)OC` (stereo unspecified), for which the result was inactive.

Regarding `O=S(=O)(O)c1cccc2c(N=Nc3ccc(N=Nc4ccc(Nc5ccccc5)c5c(S(=O)(=O)O)cccc45)c4ccccc34)cccc12`, the EC50 is above 50.1 µM and the IC50 turned out to be 34.7 µM.

Regarding `N#CC1(C#N)C(C#N)(C#N)C12CCCC2`, the EC50 was above 20 µM and the IC50 worked out at 10.5 µM.

As to `Cc1ccc(C2SCc3nc4ccccc4n32)cc1` (stereo unspecified), the EC50 was above 200 µM and the IC50 is 1.02 µM.

For `CC(C)(C)OC(=O)C1=C(O)C(C(=O)OC(C)(C)C)C23CCCCC12C(C(=O)OC(C)(C)C)C(O)=C3C(=O)OC(C)(C)C` (stereo unspecified), the result was inactive.

For `S=P(Oc1cc(Cl)c(Cl)cc1Cl)(N1CCN(c2cccc(Cl)c2)CC1)N1CCN(c2cccc(Cl)c2)CC1`, the EC50 is above 11.2 µM and the half-inhibitory concentration (IC50) was above 11.2 µM.

Consider `O=C1c2ccccc2C(=O)C1(Br)C(Br)c1ccccc1` (stereo unspecified), for which the EC50 was above 200 µM and the IC50 stood at 2.57 µM.

As for `O=C(O)/C=C/CCC1SCC2NC(=O)NC21` (stereo unspecified), the EC50 is above 107 µM and the IC50 was above 107 µM.

For `O=C1C=CC(=O)[C@H]2C3C=CC(C4C3C3(Cl)C(Cl)=C(Cl)[C@]4(Cl)C3(Cl)Cl)[C@@H]12` (stereo partly specified), the EC50 was above 200 µM and the IC50 was 12 µM.

Turning to `O=C(O)c1cc(N=Nc2cc(S(=O)(=O)O)c3cccnc3c2O)ccc1/C=C/c1ccc(N=Nc2cc(S(=O)(=O)O)c3cccnc3c2O)cc1C(=O)O`, the EC50 is 4.27 µM and 21.4 µM; the IC50 was 61.7 µM and > 200 µM.

With `CCOC(=O)/C(=C/c1ccc(N(C)C)cc1)C(=O)c1ccccc1`, the EC50 was above 8.51 µM and the IC50 is above 8.51 µM.

Regarding `O=C1OC(c2ccccc2)(c2ccccc2)c2sccc21`, the EC50 is above 24.5 µM and the IC50 is above 24.5 µM.

For the compound `N#CNc1nc(N)c(-c2ccc(Cl)cc2)c(C(=O)Nc2ccc(Cl)c(Cl)c2)n1`, the result was inactive.

Take `CCN1/C(=C/C#C/C(C)=C\c2sc3ccc(Cl)cc3[n+]2CC)Sc2ccc(Cl)cc21`: the EC50 is above 20 µM and the IC50 was 2.24 µM.

With `Oc1c(Cl)ccc2cccnc12`, the EC50 was above 20 µM and the IC50 was 0.676 µM.

Regarding `CN(C)CCNC(=O)c1cc(NC(=O)c2cc(NC(=O)CC/C=C3/[C@@H]4CC[C@H]3N=N4)cn2C)cn1C`, the EC50 is above 200 µM and the concentration for half-maximal inhibition (IC50) was above 200 µM.

For the compound `Cc1c(CC/C(=N\Nc2ccc([N+](=O)[O-])cc2[N+](=O)[O-])c2ccccc2)c2ccccc2n1C`, the result was inactive.

For `Nc1c(C(=O)O)nnc2cc(Cl)c(Cl)cc12`, the EC50 was above 200 µM and the IC50 was above 200 µM.

In the case of `CC1(C)CC(=O)c2c(nc3c(ccc4ccccc43)c2-c2ccc(NC(=O)CCCCC(=O)Nc3ccc(-c4c5c(nc6c4ccc4ccccc46)CC(C)(C)CC5=O)cc3)cc2)C1`, the EC50 was above 100 µM and the IC50 worked out at 20 µM.

On to `CC(=O)OC(C(=O)NNC(=O)OC(C)(C)C)c1ccccc1` (stereo unspecified), for which the EC50 was above 200 µM and the IC50 is above 200 µM.

For the compound `N#Cc1[nH]c(=O)n(-c2ccc(Cl)cc2)c1N`, the EC50 was above 200 µM and the IC50 was above 200 µM.

As for `CC1=C(OC2OC(CO)C(O)C(O)C2O)C(=O)C[C@H]2C1=CC[C@@H]1[C@@]2(C)C(=O)C[C@]2(C)[C@@H]([C@@](C)(O)C(=O)CCC(C)(C)O)[C@H](O)C[C@@]12C` (stereo partly specified), the EC50 is above 200 µM and the IC50 was above 200 µM.

In the case of `CCN(CC)CCN(CC)C(=O)COc1cc2c(O)c3c(O)c(C)c4c(c13)C(=O)C(C)(O/C=C/C(OC)C(C)C(OC(C)=O)C(C)C(O)C(C)C(O)C(C)/C=C/C=C(\C)C(=O)N2)O4` (stereo unspecified), the EC50 was above 200 µM and the IC50 stood at 35.5 µM.

For the origin of these results see PubChem BioAssay AID179 (DTP/NCI, 2004).
